Results on 20 molecules are retold here after PubChem BioAssay AID504609 (Sanford-Burnham Center for Chemical Genomics, 2011).

Structures are written as SMILES. Activity calls are given as the source filed them.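 The calls were made as follows: active = IC50 under a set limit, which marks the compound as nonspecific in this counterscreen; inactive = the rest.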 Bounds are passed on as bounds.

This assay addresses SaOS-2 dox-inducible full-length luciferase, luminescence counterscreen. Nature of the assay: full-length luciferase signal inhibition, dose response, counter-screen for Mdm2/MdmX interaction inhibitor project, cell-based, SaOS-2, dox-inducible (AID 504609).

In the case of `O=C(/C=C/c1c(F)cccc1Cl)c1ccc(O)cc1`, the IC50 is 6.23 µM.
Next, `CCOC(=O)/C=C/C(=O)OCC(=O)NC(c1ccccc1)c1ccccc1`: 2.41 µM; `Cn1nc([N+](=O)[O-])nc1Sc1nnc(-c2ccccc2)o1`: 7.44 µM.
Next, `C/C(=N\Nc1cc(C)nc(-c2ccccc2O)n1)c1ccccc1O`: 11.5 µM; `COc1cc(-c2nc(-c3ccc(NC(=O)c4ccc5c(c4)OCO5)cc3)no2)cc(OC)c1OC`: 3.87 µM; `COc1ccc2c(c1)C1(Nc3ccccc3-c3nc4ccccc4n31)C(=O)N2C` (stereo not given): 1.75 µM.
Next, `COCCn1c(C)cc(C2=NNC(=Nc3ccccc3F)SC2)c1C`: 0.137 µM; `Cc1cccn2c(=O)c3cc(C(=O)NCCc4ccccc4)c(=N)n(Cc4ccco4)c3nc12`: 3.58 µM.
Consider `COc1ccc(-c2cc3c(=O)n(CC(=O)NCCCN4CCC(N5CCCCC5)CC4)nc(C)n3n2)cc1`, for which the IC50 was 15.5 µM.
Next, `CC1(C)C(=O)Nc2ccccc2N1C(=O)Cn1ncc(Cl)c(Cl)c1=O`: 8.88 µM; `Cc1nc(NC2=NCN(CCCN3CCOCC3)CN2)nc2c(C)cccc12`: 13.8 µM.
Next, `CC(=O)c1ccc(-c2ccc(C(=O)Nc3nc(-c4ccccn4)cs3)o2)cc1`: 5.78 µM; `CCN1C/C(=C/c2ccc(OC)c(O)c2)C(=O)/C(=C/c2ccc(OC)c(O)c2)C1`: 7.64 µM; `O=C(CN1CCCc2ccccc21)N/N=C/c1c(O)ccc2ccccc12`: 1.57 µM.
As for `O=c1oc2ccccc2cc1-c1cn(-c2ccccc2)c(=S)[nH]1`, the IC50 is 2.38 µM.
Turning to `CCOC(=O)c1ccc(Nc2nc(N)c3cc(OC)c(OC)cc3n2)cc1`, the IC50 is > 79 µM (inactive).
Next, `CCN(CC)S(=O)(=O)c1ccc(NC(=O)c2cccnc2Cl)c(NC(=O)c2cccnc2Cl)c1`: 5.16 µM.
Next, `CCOc1cc(N2CCOCC2)c(OCC)cc1NC(=O)COc1cccc2cccnc12`: 12.5 µM; `O=[N+]([O-])c1ccccc1S(=O)(=O)Nc1cccc2cccnc12`: 2.67 µM; `CC(C)c1cccc(O)c(=O)c1`: 2.27 µM.
